From ChEMBL document CHEMBL3044627, “Residual and sublethal effects of fenpyroximate and pyridaben on the instantaneous rate of increase of Tetranychus urticae” (Crop Prot, 2006)
Calls of active or inactive are those of the source. The rule behind the calls is not given here.

Assays:
Type in all cases: functional, organism-based
Tetranychus urticae [1] = assay: Acaricidal activity against Tetranychus urticae (two-spotted spider mite) infested kidney bean leaves assessed as decrease in survivors of progeny applied as spray after 5 days
Tetranychus urticae [2] = assay: Acaricidal activity against Tetranychus urticae (two-spotted spider mite) infested kidney bean leaves assessed as decrease in survival at 6.4 to 46.6 ppm applied as spray after 7 to 9 days relative to control
Tetranychus urticae [3] = assay: Acaricidal activity against Tetranychus urticae (two-spotted spider mite) infested kidney bean leaves assessed as decrease in reproduction of survivors applied as spray after 7 days
Tetranychus urticae [4] = assay: Acaricidal activity against Tetranychus urticae (two-spotted spider mite) infested kidney bean leaves assessed as decrease in survivors of progeny applied as spray after 3 days
Tetranychus urticae [5] = assay: Acaricidal activity against Tetranychus urticae (two-spotted spider mite) infested kidney bean leaves assessed as decrease in immature production at 6.4 to 46.6 ppm applied as spray after 3 to 6 days
Tetranychus urticae [6] = assay: Acaricidal activity against Tetranychus urticae (two-spotted spider mite) infested kidney bean leaves assessed as decrease in survivors of progeny applied as spray after 1 day
Tetranychus urticae [7] = assay: Acaricidal activity against Tetranychus urticae (two-spotted spider mite) infested kidney bean leaves assessed as decrease in reproduction of survivors applied as spray after 5 days
Tetranychus urticae [8] = assay: Acaricidal activity against Tetranychus urticae (two-spotted spider mite) infested kidney bean leaves assessed as decrease in reproduction of survivors applied as spray after 1 day
Tetranychus urticae [9] = assay: Acaricidal activity against Tetranychus urticae (two-spotted spider mite) infested kidney bean leaves assessed as decrease in reproduction of survivors applied as spray after 3 days
Tetranychus urticae [10] = assay: Acaricidal activity against Tetranychus urticae (two-spotted spider mite) infested kidney bean leaves assessed as decrease in reproduction of survivors applied as spray after 9 days
Tetranychus urticae [11] = assay: Acaricidal activity against Tetranychus urticae (two-spotted spider mite) infested kidney bean leaves assessed as decrease in survivors of progeny applied as spray after 7 days
Tetranychus urticae [12] = assay: Acaricidal activity against Tetranychus urticae (two-spotted spider mite) infested kidney bean leaves assessed as decrease in survivors of progeny applied as spray after 9 days
Tetranychus urticae [13] = assay: Acaricidal activity against Tetranychus urticae (two-spotted spider mite) infested kidney bean leaves assessed as decrease in survival at 6.4 to 46.6 ppm applied as spray up to 5 days relative to control
Tetranychus urticae [14] = assay: Acaricidal activity against Tetranychus urticae (two-spotted spider mite) infested kidney bean leaves assessed as decrease in immature production at 2101 ppm applied as spray after 3 to 6 days
Tetranychus urticae [15] = assay: Acaricidal activity against Tetranychus urticae (two-spotted spider mite) infested kidney bean leaves assessed as decrease in survival at 2101.3 to 20446.5 ppm applied as spray after 3 days relative to control
Tetranychus urticae [16] = assay: Acaricidal activity against Tetranychus urticae (two-spotted spider mite) infested kidney bean leaves assessed as decrease in egg production applied as spray after 3 to 6 days

Compound	EC50 (Tetranychus urticae [1]) [ppm]	Activity (Tetranychus urticae [2])	EC50 (Tetranychus urticae [3]) [ppm]	EC50 (Tetranychus urticae [4]) [ppm]	Activity (Tetranychus urticae [5])	EC50 (Tetranychus urticae [6]) [ppm]	EC50 (Tetranychus urticae [7]) [ppm]	EC50 (Tetranychus urticae [8]) [ppm]	EC50 (Tetranychus urticae [9]) [ppm]	EC50 (Tetranychus urticae [10]) [ppm]	EC50 (Tetranychus urticae [11]) [ppm]	EC50 (Tetranychus urticae [12]) [ppm]	Activity (Tetranychus urticae [13])	Activity (Tetranychus urticae [14])	Activity (Tetranychus urticae [15])	Activity (Tetranychus urticae [16])
Cc1nn(C)c(Oc2ccccc2)c1/C=N/OCc1ccc(C(=O)OC(C)(C)C)cc1 [FENPYROXYMATE]	72.7	inactive	124	99	Active	116.2	130.8	114.6	131.1	253.7	70.1	104	Active			
CC(C)(C)c1ccc(CSc2cnn(C(C)(C)C)c(=O)c2Cl)cc1 [PYRIDABEN]			19425.1				19439.6	9118.1	19162.1	49880.7				Active	inactive	Dose-dependent effect
